{
  "source": "patent US20140148336A1",
  "about": "“METHODS OF CONTROLLING FUNGAL PATHOGENS USING POLYENE FUNGICIDES” (priority 2012, published 2014)",
  "assay_type_in_all_cases": "in vivo, Fusarium virguliforme",
  "key": {"SDS spores": {"tested_on": "SDS spores", "test": "Comparison of inoculum rates on treated seeds for control of SDS in planta (Example 6)", "details": "for Root Vigor Average: rating 0-4 (4 = healthy taproot); for Root Rot Average: rating 1-5 (5 = >90% infection)", "text": "(§1) The plants were allowed to grow for 18-21 days. The plants were then gently removed and assessed for root rot symptoms, with a rating of 1=0% infection on taproot and lateral roots, a 2=<25% infection, a 3=25-50% infection, a 4=51-90% infection, and a 5=>90% infection. Root vigor was rated such that a rating of 4=healthy taproot and many lateral roots, a 3=fewer lateral roots and some stunting, a 2=fewer or stringy lateral roots and more stunting, 1=thin tap root and only a few lateral roots, and a 0=thin and stunted taproot with 0-3 lateral roots.\nUsing a protocol similar to that described in Example 5, natamycin at concentrations of 50 μg, 25 μg, 10 μg, 5 μg, and 1 μg was assessed for the treatment of SDS.\n[…] Inoculum rates of 25 g/L inoculum and 8 g/L inoculum were compared, corresponding to approximately 10^5 SDS spores per container and 10^4-10^5 SDS spores per container, respectively. Assessment occurred after 18 and 22 days."}, "SDS": {"tested_on": "SDS", "test": "Seed treatment for control of SDS in planta, infested soil (Example 5)", "details": "for Root Rot Average: 25 g inoculum per liter, rating 1-5 (5 = >90% infection), IC 3.3; for Root Vigor Average Infested Soil: rating 0-4 (4 = healthy taproot), IC 2.5", "text": "as §1\nUsing a protocol similar to Example 2, natamycin treated seeds were tested at 50 μg, 25 μg, 10 μg, 5 μg, and 1 μg natamycin per seed. Briefly, seeds were coated with a natamycin slurry and then allowed to air dry. Ten samples of each were planted into infested soil, while five samples of each were planted in uninfested soil to compare germination and potential phytotoxicity.\nInoculum rates in this experiment were 25 g inoculum per liter sand/soil. This is equivalent to 8.5×10^4 spores per cone.\nPlants treated with 50 μg/seed of natamycin had the most root rot, while plants treated with 1 μg/seed of natamycin had the least root rot. […] In the tables below, “IC Natamycin 25 ppm” refers to an infested control that was treated with natamcyin as a drench application at 25 ppm two days after planting untreated seed into infested soil."}, "F. virguliforme": {"tested_on": "F. virguliforme", "details": "50 mL per cone, 2% low rate infested soil, 18-21 days", "method": "Sorghum was prepared for inoculation. One to two liters of sorghum seed was put into spawn bags, autoclaved, then inoculated with 30-45 mL of an SDA spore suspension. Bags were left in a cupboard at room temperature, then shaken and mixed every few days for three weeks until ready. Sorghum inoculum was assessed for the number of spores per gram of seed by hemacytometer. The sorghum grew to 4.57×10^5 spores/g.\nF. virguliforme spores were enumerated before soil inoculation. First, 25 mL of sterile 0.1% Tween 80 in water was added to sterile 50 mL conical tubes. The tubes where weighed. Then several grains of colonized sorghum from the spawn bag were aseptically added. The tubes were re-weighed to find the exact mass of colonized spores added to the tube. The tubes were shaken at 28-30° C. at approximately 250 rpm for 2-4 hours to release spores from the sorghum seed. Samples were then removed from the tubes and spores were quantified using a hemacytometer. F. virguliforme spores were quantified by making a dilution series from each tube onto PDA plates with 100 ppm chloramphenicol antibiotic.\nSoil inoculation began by grounding sorghum grain inoculum in a Waring blender in small batches for 10-20 seconds on the low setting. The ground sorghum was then mixed into Monterey sand fine #60 (Lapis Luster, RMC pacific materials) at either a “2% low rate,” consisting of 2×10^5 spores/cone with 8.9 g/L of sand, or a “5% high rate,” consisting of 5×10^5 spores/cone with 22.5 g/L of sand. The Monterey sand was not pre-sterilized. The ground sorghum inoculum was added on the same day as the experimental set up. In later experiments, ground sorghum inoculum was mixed into sand based on the enumerated spores per gram of inoculum.\nNatamycin solution was added in four different concentrations to four different groups of untreated seeds in “2% low rate” infested soil cones. The four different concentrations were 250 ppm, 100 ppm, 50 ppm, and 25 ppm. Fifty milliliters of the natamycin solutions were used per cone.\nThe assays were planted by first moistening infested sand with water at 150 mL per liter of sand and mixing. The cone-shaped containers were filled 1-2 inches at the bottom with a Sunshine #3 potting mix plug in order to keep the sand in the tube. The containers were then filled to within 1-1.5 inches of the top with moistened and infested sand, taking an average of 120-125 mL to fill each container. The containers were then watered. Two soy seeds were planted into each container. […]\nThe plants were allowed to grow for 18-21 days. The plants were then gently removed and assessed for root rot symptoms, with a rating of 1=0% infection on taproot and lateral roots, a 2=<25% infection, a 3=25-50% infection, a 4=51-90% infection, and a 5=>90% infection. […]"}, "[1]": {"details": "drench 25 ppm two days after planting untreated seed into infested soil"}},
  "note": "Like-named read-outs stand apart in the source and are kept apart here.",
  "data": [
    {"smiles": "C[C@@H]1C/C=C/C=C/C=C/C=C/[C@H](O[C@@H]2O[C@H](C)[C@@H](O)[C@H](N)[C@@H]2O)C[C@@H]2O[C@](O)(C[C@@H](O)C[C@H]3O[C@@H]3/C=C/C(=O)O1)C[C@H](O)[C@H]2C(=O)O", "note": "[Natamycin, natamycin]", "values": [
      {"measurement": "decrease of root rot symptoms", "setting": "SDS spores; both seed treatment experiments, both SDS inoculum rates", "value": "no consistent decrease"},
      {"measurement": "Root Vigor Average", "setting": "SDS spores; drench 25 ppm, Inoc Rate 8, IC 2.3", "value": 1.9},
      {"measurement": "Root Rot Average", "setting": "SDS spores; drench 25 ppm, Inoc Rate 8, IC 2.9", "value": 2.6},
      {"measurement": "Root Vigor Average", "setting": "SDS spores; drench 25 ppm, Inoc Rate 25, IC 1.6", "value": 2.3},
      {"measurement": "Root Rot Average", "setting": "SDS spores; drench 25 ppm, Inoc Rate 25, IC 3.9", "value": 4.1},
      {"measurement": "Root Vigor Average", "setting": "SDS spores; seed treatment 1 μg/seed, Inoc Rate 8, IC 2.3", "value": 1.9},
      {"measurement": "Root Rot Average", "setting": "SDS spores; seed treatment 1 μg/seed, Inoc Rate 8, IC 2.9", "value": 2.9},
      {"measurement": "Root Vigor Average", "setting": "SDS spores; seed treatment 1 μg/seed, Inoc Rate 25, IC 1.6", "value": 2.1},
      {"measurement": "Root Rot Average", "setting": "SDS spores; seed treatment 1 μg/seed, Inoc Rate 25, IC 3.9", "value": 4.1},
      {"measurement": "Root Vigor Average", "setting": "SDS spores; seed treatment 5 μg/seed, Inoc Rate 8, IC 2.3", "value": 1.4},
      {"measurement": "Root Rot Average", "setting": "SDS spores; seed treatment 5 μg/seed, Inoc Rate 8, IC 2.9", "value": 2.4},
      {"measurement": "Root Vigor Average", "setting": "SDS spores; seed treatment 5 μg/seed, Inoc Rate 25, IC 1.6", "value": 2.6},
      {"measurement": "Root Rot Average", "setting": "SDS spores; seed treatment 5 μg/seed, Inoc Rate 25, IC 3.9", "value": 4.1},
      {"measurement": "Root Vigor Average", "setting": "SDS spores; seed treatment 10 μg/seed, Inoc Rate 8, IC 2.3", "value": 2.2},
      {"measurement": "Root Rot Average", "setting": "SDS spores; seed treatment 10 μg/seed, Inoc Rate 8, IC 2.9", "value": 2.4},
      {"measurement": "Root Vigor Average", "setting": "SDS spores; seed treatment 10 μg/seed, Inoc Rate 25, IC 1.6", "value": 1.9},
      {"measurement": "Root Rot Average", "setting": "SDS spores; seed treatment 10 μg/seed, Inoc Rate 25, IC 3.9", "value": 4.1},
      {"measurement": "Root Vigor Average", "setting": "SDS spores; seed treatment 25 μg/seed, Inoc Rate 8, IC 2.3", "value": 1.8},
      {"measurement": "Root Rot Average", "setting": "SDS spores; seed treatment 25 μg/seed, Inoc Rate 8, IC 2.9", "value": 2.3},
      {"measurement": "Root Vigor Average", "setting": "SDS spores; seed treatment 25 μg/seed, Inoc Rate 25, IC 1.6", "value": 2.2},
      {"measurement": "Root Rot Average", "setting": "SDS spores; seed treatment 25 μg/seed, Inoc Rate 25, IC 3.9", "value": 3.6},
      {"measurement": "Root Vigor Average", "setting": "SDS spores; seed treatment 50 μg/seed, Inoc Rate 8, IC 2.3", "value": 1.9},
      {"measurement": "Root Rot Average", "setting": "SDS spores; seed treatment 50 μg/seed, Inoc Rate 8, IC 2.9", "value": 2.8},
      {"measurement": "Root Vigor Average", "setting": "SDS spores; seed treatment 50 μg/seed, Inoc Rate 25, IC 1.6", "value": 2.1},
      {"measurement": "Root Rot Average", "setting": "SDS spores; seed treatment 50 μg/seed, Inoc Rate 25, IC 3.9", "value": 3.8},
      {"measurement": "Root Rot Average", "setting": "SDS; [1]", "value": 1.8},
      {"measurement": "Root Vigor Average Infested Soil", "setting": "SDS; [1]", "value": 2.3},
      {"measurement": "Root Rot Average", "setting": "SDS; seed treatment 1 μg/seed, infested soil", "value": 3},
      {"measurement": "Root Vigor Average Infested Soil", "setting": "SDS; seed treatment 1 μg/seed", "value": 1.9},
      {"measurement": "Root Rot Average", "setting": "SDS; seed treatment 5 μg/seed, infested soil", "value": 3.6},
      {"measurement": "Root Vigor Average Infested Soil", "setting": "SDS; seed treatment 5 μg/seed", "value": 2.4},
      {"measurement": "Root Rot Average", "setting": "SDS; seed treatment 10 μg/seed, infested soil", "value": 4},
      {"measurement": "Root Vigor Average Infested Soil", "setting": "SDS; seed treatment 10 μg/seed", "value": 1.8},
      {"measurement": "Root Rot Average", "setting": "SDS; seed treatment 25 μg/seed, infested soil", "value": 4.7},
      {"measurement": "Root Vigor Average Infested Soil", "setting": "SDS; seed treatment 25 μg/seed", "value": 1.1},
      {"measurement": "Root Rot Average", "setting": "SDS; seed treatment 50 μg/seed, infested soil", "value": 4.6},
      {"measurement": "Root Vigor Average Infested Soil", "setting": "SDS; seed treatment 50 μg/seed", "value": 1.6},
      {"measurement": "root rot ratings as compared to the infected control", "setting": "F. virguliforme; 25 ppm/container", "value": "significantly lowering"},
      {"measurement": "root vigor as compared to the infected control", "setting": "F. virguliforme; 25 ppm/container", "value": "improving"},
      {"measurement": "root rot ratings as compared to the infected control", "setting": "F. virguliforme; 50 ppm/container", "value": "significantly lowering"},
      {"measurement": "root vigor as compared to the infected control", "setting": "F. virguliforme; 50 ppm/container", "value": "improving"}
    ]}
  ]
}
